The kinase profiling compilation of Christmann-Franck et al. (2016)

Key:
Assay in all cases: KINOMEscan competition binding
Settings in all cases: compound 10.0 µM
RIOK2 (human) = RIOK2 (human) (UniProt Q9BVS4)
SRPK3 (human) = SRPK3 (human) (UniProt Q9UPE1)
MARK2 (human) = MARK2 (human) (UniProt Q7KZI7)
PTK2 (human) = PTK2 (human) (UniProt Q05397)
AAK1 (human) = AAK1 (human) (UniProt Q2M2I8)
AKT1 (human) = AKT1 (human) (UniProt P31749)
MAP2K2 (human) = MAP2K2 (human) (UniProt P36507)
CSNK1E (human) = CSNK1E (human) (UniProt P49674)
CAMK1G (human) = CAMK1G (human) (UniProt Q96NX5)
[1] = biological target: TYK2 JH2 pseudokinase (human) (UniProt P29597)
SRPK2 (human) = SRPK2 (human) (UniProt P78362)
CASK (human) = CASK (human) (UniProt O14936)
NEK3 (human) = NEK3 (human) (UniProt P51956)
SNRK (human) = SNRK (human) (UniProt Q9NRH2)
SIK3 (human) = SIK3 (human) (UniProt Q9Y2K2)
PIP4K2C (human) = PIP4K2C (human) (UniProt Q8TBX8)
EPHB3 (human) = EPHB3 (human) (UniProt P54753)
YSK4 (human) = YSK4 (human) (UniProt Q56UN5)
ERBB3 (human) = ERBB3 (human) (UniProt P21860)
BLK (human) = BLK (human) (UniProt P51451)
DMPK (human) = DMPK (human) (UniProt Q09013)
MAP4K1 (human) = MAP4K1 (human) (UniProt Q92918)
PTK6 (human) = PTK6 (human) (UniProt Q13882)
TSSK1B (human) = TSSK1B (human) (UniProt Q9BXA7)
EPHA7 (human) = EPHA7 (human) (UniProt Q15375)
MAP4K2 (human) = MAP4K2 (human) (UniProt Q12851)
MYO3B (human) = MYO3B (human) (UniProt Q8WXR4)
NTRK1 (human) = NTRK1 (human) (UniProt P04629)
DSTYK (human) = DSTYK (human) (UniProt Q6XUX3)
FYN (human) = FYN (human) (UniProt P06241)
CLK2 (human) = CLK2 (human) (UniProt P49760)
CDK13 (human) = CDK13 (human) (UniProt Q14004)
EPHA4 (human) = EPHA4 (human) (UniProt P54764)
ABL2 (human) = ABL2 (human) (UniProt P42684)
ACVR2A (human) = ACVR2A (human) (UniProt P27037)
DYRK1B (human) = DYRK1B (human) (UniProt Q9Y463)
PDGFRB (human) = PDGFRB (human) (UniProt P09619)
NTRK3 (human) = NTRK3 (human) (UniProt Q16288)
TEK (human) = TEK (human) (UniProt Q02763)
AURKB (human) = AURKB (human) (UniProt Q96GD4)

Chain of YSK4 (human) (Q56UN5 whole entry, looked up): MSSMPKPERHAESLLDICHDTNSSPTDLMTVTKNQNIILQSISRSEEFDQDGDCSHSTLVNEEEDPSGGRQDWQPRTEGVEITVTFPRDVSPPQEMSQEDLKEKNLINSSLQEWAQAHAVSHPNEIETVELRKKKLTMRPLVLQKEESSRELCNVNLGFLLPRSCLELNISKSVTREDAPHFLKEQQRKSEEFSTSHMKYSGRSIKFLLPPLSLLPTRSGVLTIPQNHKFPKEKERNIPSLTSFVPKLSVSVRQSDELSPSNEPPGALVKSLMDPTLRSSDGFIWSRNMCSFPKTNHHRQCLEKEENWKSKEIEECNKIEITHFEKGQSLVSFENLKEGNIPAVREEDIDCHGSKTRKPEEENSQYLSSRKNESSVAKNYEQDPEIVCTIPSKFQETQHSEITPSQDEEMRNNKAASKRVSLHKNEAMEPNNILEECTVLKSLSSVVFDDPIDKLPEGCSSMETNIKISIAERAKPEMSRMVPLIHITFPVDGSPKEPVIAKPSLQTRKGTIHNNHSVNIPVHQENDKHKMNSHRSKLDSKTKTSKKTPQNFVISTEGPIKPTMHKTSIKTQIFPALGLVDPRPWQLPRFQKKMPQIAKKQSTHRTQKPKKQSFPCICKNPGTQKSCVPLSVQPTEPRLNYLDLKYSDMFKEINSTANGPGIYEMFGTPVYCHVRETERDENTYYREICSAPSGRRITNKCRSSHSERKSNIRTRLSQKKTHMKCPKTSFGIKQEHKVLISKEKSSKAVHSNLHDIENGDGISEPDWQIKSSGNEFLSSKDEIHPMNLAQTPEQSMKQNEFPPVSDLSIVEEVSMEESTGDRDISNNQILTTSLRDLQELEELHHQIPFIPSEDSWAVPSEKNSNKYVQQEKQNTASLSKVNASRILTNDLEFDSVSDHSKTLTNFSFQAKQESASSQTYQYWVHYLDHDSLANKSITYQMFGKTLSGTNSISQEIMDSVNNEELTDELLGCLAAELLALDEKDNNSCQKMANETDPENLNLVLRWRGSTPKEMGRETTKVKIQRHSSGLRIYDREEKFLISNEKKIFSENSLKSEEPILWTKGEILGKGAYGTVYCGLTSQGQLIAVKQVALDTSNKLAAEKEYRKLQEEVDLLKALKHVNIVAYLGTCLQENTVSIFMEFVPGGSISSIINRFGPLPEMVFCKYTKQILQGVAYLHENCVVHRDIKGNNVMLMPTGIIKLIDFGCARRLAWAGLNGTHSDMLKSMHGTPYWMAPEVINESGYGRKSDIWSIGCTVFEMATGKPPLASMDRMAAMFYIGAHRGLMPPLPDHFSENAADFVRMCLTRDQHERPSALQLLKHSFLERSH
Chain of CDK13 (human) (Q14004 whole entry, looked up): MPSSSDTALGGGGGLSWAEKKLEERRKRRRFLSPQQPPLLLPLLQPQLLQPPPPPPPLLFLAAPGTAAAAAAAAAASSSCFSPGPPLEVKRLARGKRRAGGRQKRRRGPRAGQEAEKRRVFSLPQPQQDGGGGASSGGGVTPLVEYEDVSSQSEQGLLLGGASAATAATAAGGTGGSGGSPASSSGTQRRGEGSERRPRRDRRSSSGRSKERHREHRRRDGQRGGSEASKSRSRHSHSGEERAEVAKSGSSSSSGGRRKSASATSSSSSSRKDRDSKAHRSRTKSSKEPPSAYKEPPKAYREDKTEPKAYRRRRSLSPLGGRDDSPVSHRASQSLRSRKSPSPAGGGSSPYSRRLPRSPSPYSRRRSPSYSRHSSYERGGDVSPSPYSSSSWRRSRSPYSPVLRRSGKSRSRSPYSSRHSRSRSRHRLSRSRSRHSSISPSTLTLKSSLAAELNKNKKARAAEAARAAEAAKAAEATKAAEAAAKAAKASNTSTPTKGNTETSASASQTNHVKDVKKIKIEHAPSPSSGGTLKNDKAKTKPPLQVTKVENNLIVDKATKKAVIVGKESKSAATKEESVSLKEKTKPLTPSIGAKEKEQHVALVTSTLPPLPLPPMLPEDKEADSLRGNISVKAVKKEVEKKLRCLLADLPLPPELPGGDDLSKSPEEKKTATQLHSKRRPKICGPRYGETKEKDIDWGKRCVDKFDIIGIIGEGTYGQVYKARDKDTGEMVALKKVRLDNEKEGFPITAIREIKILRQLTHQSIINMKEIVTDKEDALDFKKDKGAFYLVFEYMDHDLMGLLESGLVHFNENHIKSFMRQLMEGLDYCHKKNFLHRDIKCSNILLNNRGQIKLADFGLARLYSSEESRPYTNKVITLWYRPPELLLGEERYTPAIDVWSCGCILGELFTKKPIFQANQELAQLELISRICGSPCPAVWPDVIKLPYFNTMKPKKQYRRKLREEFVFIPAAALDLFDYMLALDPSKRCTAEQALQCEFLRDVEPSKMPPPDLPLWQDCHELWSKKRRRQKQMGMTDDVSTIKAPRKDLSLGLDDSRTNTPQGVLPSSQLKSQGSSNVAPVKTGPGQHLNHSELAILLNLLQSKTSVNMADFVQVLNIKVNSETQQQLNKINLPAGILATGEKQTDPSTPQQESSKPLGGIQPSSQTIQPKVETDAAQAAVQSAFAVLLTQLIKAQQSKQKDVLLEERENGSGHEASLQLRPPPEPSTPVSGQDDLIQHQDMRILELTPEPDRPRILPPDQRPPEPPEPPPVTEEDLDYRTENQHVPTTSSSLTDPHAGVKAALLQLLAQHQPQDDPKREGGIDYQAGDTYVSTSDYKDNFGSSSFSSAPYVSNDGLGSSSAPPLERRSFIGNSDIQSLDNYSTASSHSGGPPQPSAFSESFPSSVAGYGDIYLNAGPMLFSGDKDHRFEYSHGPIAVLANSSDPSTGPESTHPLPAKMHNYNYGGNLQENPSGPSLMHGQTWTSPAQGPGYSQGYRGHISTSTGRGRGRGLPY
Chain of TYK2 JH2 pseudokinase (human) (P29597 whole entry, looked up): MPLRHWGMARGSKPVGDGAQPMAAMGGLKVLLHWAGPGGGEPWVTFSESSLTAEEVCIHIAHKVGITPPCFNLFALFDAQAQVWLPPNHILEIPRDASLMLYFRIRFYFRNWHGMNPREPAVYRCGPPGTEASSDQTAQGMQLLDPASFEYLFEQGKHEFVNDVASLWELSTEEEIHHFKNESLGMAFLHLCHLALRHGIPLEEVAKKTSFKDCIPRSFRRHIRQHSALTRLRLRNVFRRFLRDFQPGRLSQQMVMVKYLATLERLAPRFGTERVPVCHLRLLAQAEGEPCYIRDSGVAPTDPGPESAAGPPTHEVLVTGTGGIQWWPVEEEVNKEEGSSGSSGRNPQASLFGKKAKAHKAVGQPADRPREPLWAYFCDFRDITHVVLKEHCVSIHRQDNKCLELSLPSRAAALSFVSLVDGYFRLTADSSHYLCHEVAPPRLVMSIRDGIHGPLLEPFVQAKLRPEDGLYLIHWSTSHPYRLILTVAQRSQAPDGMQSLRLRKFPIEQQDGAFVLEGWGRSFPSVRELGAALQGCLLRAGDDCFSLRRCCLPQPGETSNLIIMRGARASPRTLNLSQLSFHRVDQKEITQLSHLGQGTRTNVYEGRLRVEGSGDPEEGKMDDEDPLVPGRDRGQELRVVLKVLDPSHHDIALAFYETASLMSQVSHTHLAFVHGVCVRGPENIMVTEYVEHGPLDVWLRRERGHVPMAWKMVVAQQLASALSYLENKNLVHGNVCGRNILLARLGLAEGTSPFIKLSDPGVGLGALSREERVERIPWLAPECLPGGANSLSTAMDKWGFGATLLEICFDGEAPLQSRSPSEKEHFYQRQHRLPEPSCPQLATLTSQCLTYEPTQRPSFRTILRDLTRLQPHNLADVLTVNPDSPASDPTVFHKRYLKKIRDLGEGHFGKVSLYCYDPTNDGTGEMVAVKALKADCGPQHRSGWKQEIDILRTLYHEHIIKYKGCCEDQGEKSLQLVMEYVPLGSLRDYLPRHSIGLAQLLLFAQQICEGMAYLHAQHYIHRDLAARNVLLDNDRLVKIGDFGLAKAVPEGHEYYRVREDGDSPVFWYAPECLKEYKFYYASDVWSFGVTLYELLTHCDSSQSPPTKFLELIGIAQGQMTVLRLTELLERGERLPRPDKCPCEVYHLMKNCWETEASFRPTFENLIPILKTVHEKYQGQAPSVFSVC
Chain of PTK6 (human) (Q13882 whole entry, looked up): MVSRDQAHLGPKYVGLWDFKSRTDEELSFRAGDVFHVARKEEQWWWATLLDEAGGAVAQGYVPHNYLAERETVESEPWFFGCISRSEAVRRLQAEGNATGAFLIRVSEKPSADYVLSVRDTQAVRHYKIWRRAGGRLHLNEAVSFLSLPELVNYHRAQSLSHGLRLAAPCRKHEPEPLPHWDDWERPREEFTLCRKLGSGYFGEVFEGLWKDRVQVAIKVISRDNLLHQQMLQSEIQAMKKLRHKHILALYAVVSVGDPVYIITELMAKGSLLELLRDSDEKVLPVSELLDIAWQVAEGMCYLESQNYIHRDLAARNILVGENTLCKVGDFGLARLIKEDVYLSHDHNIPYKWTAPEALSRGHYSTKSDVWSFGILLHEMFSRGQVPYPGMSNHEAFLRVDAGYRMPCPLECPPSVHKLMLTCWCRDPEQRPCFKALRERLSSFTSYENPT
Chain of CLK2 (human) (P49760 whole entry, looked up): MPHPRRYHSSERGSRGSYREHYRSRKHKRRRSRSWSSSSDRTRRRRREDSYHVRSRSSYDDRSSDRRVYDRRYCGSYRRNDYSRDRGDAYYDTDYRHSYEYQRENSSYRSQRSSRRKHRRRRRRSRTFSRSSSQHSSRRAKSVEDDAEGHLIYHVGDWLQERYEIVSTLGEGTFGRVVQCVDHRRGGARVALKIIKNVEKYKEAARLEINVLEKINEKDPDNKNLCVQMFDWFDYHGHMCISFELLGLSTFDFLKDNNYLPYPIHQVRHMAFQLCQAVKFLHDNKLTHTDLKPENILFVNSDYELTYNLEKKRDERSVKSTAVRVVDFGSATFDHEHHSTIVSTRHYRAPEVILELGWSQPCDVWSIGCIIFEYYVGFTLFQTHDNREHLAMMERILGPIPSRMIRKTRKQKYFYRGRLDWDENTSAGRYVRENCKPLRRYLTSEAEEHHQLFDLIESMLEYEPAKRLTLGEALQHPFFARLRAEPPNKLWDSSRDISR

| Structure (SMILES) | kinase still bound, per cent of control (RIOK2 (human)) | kinase still bound, per cent of control (SRPK3 (human)) | kinase still bound, per cent of control (AAK1 (human)) | kinase still bound, per cent of control (AKT1 (human)) | kinase still bound, per cent of control (MAP2K2 (human)) | kinase still bound, per cent of control (CSNK1E (human)) | kinase still bound, per cent of control (CAMK1G (human)) | kinase still bound, per cent of control [1] | kinase still bound, per cent of control (SRPK2 (human)) | kinase still bound, per cent of control (CASK (human)) | kinase still bound, per cent of control (NEK3 (human)) | kinase still bound, per cent of control (SNRK (human)) | kinase still bound, per cent of control (SIK3 (human)) | kinase still bound, per cent of control (PIP4K2C (human)) | kinase still bound, per cent of control (EPHB3 (human)) | kinase still bound, per cent of control (YSK4 (human)) | kinase still bound, per cent of control (ERBB3 (human)) | kinase still bound, per cent of control (BLK (human)) | kinase still bound, per cent of control (PTK6 (human)) | kinase still bound, per cent of control (TSSK1B (human)) | also measured |
| --- | --- | --- | --- | --- | --- | --- | --- | --- | --- | --- | --- | --- | --- | --- | --- | --- | --- | --- | --- | --- | --- |
| CNC(=O)c1cc(Oc2ccc(NC(=O)Nc3ccc(Cl)c(C(F)(F)F)c3)cc2)ccn1 | 97% | 90% | 100% | 100% | 86% | 100% | 99% | 100% | 96% | 90% | 70% | 100% | 100% | 100% | 100% | 0.4% | 100% | 31% | 100% | 78% | kinase still bound, per cent of control (MARK2 (human)): 98%; kinase still bound, per cent of control (PTK2 (human)): 99%; kinase still bound, per cent of control (DMPK (human)): 100%; kinase still bound, per cent of control (MAP4K1 (human)): 41%; kinase still bound, per cent of control (EPHA7 (human)): 25%; kinase still bound, per cent of control (MAP4K2 (human)): 100%; kinase still bound, per cent of control (MYO3B (human)): 28%; kinase still bound, per cent of control (NTRK1 (human)): 16%; kinase still bound, per cent of control (DSTYK (human)): 100%; kinase still bound, per cent of control (FYN (human)): 48%; kinase still bound, per cent of control (CLK2 (human)): 55%; kinase still bound, per cent of control (CDK13 (human)): 86%; kinase still bound, per cent of control (EPHA4 (human)): 42%; kinase still bound, per cent of control (ABL2 (human)): 35%; kinase still bound, per cent of control (ACVR2A (human)): 100%; kinase still bound, per cent of control (DYRK1B (human)): 92%; kinase still bound, per cent of control (PDGFRB (human)): 0% |
| NC(=O)Nc1cc(-c2cccc(F)c2)sc1C(=O)N[C@@H]1CCCNC1 | 48% | 0.55% | 1.3% | 3.2% | 0% | 11% | 6.2% | 3.2% | 4.4% | 92% | 43% | 2.6% | 6.2% | 87% | 95% | 0% | 28% | 0% | 1.4% | 2.6% | kinase still bound, per cent of control (MARK2 (human)): 0.9%; kinase still bound, per cent of control (PTK2 (human)): 0.1%; kinase still bound, per cent of control (DMPK (human)): 12%; kinase still bound, per cent of control (NTRK3 (human)): 0.2%; kinase still bound, per cent of control (EPHA7 (human)): 0.1%; kinase still bound, per cent of control (MAP4K2 (human)): 0%; kinase still bound, per cent of control (MYO3B (human)): 8.2%; kinase still bound, per cent of control (NTRK1 (human)): 0%; kinase still bound, per cent of control (TEK (human)): 17%; kinase still bound, per cent of control (DSTYK (human)): 1.3%; kinase still bound, per cent of control (FYN (human)): 0.05%; kinase still bound, per cent of control (CLK2 (human)): 0.65%; kinase still bound, per cent of control (CDK13 (human)): 100%; kinase still bound, per cent of control (EPHA4 (human)): 3.4%; kinase still bound, per cent of control (AURKB (human)): 4.8%; kinase still bound, per cent of control (ABL2 (human)): 0.2%; kinase still bound, per cent of control (ACVR2A (human)): 2.2%; kinase still bound, per cent of control (DYRK1B (human)): 1.8%; kinase still bound, per cent of control (PDGFRB (human)): 0% |
| COCC(=O)NC/C=C/c1ccc2ncnc(Nc3ccc(Oc4ccc(C)nc4)c(C)c3)c2c1 | 100% | 100% | 100% | 100% | 11% | 100% | 96% | 24% | 92% | 100% | 95% | 71% | 76% | 84% | 86% | 100% | 20% | 62% | 100% | 100% | kinase still bound, per cent of control (NTRK3 (human)): 93%; kinase still bound, per cent of control (MAP4K1 (human)): 91%; kinase still bound, per cent of control (EPHA7 (human)): 100%; kinase still bound, per cent of control (MAP4K2 (human)): 100%; kinase still bound, per cent of control (MYO3B (human)): 100%; kinase still bound, per cent of control (NTRK1 (human)): 89%; kinase still bound, per cent of control (TEK (human)): 100%; kinase still bound, per cent of control (DSTYK (human)): 75%; kinase still bound, per cent of control (FYN (human)): 100%; kinase still bound, per cent of control (CLK2 (human)): 75%; kinase still bound, per cent of control (CDK13 (human)): 100%; kinase still bound, per cent of control (EPHA4 (human)): 98%; kinase still bound, per cent of control (AURKB (human)): 100%; kinase still bound, per cent of control (ABL2 (human)): 100%; kinase still bound, per cent of control (ACVR2A (human)): 100%; kinase still bound, per cent of control (DYRK1B (human)): 92%; kinase still bound, per cent of control (PDGFRB (human)): 46% |
